Source: US12441736B2, “KIF18A inhibitors” (AMGEN INC., priority 2018, dated 2025)

Molecular target: T1, Recombinant human KIF18A (1-467 His-tagged) protein (Homo sapiens, UniProt Q8NI77)
T1 construct: Recombinant human KIF18A (1-467 His-tagged) protein; His; made in house
Test: KIF18A Enzyme Assay: microtubule-stimulated ATPase activity (ADP-Glo)
Format: biochemical
Details: 30 nM KIF18A, 30 μg/mL pig microtubules, 75 μM ATP, ADP-Glo luminescence
Description: KIF18A Enzyme Assay: Microtubule-stimulated ATPase activity assay is used to measure KIF18A enzyme activity after treatment with compound. Compounds were 2-fold serially diluted in DMSO (Sigma Inc) over 22-point concentration range. Recombinant human KIF18A (1-467 His-tagged) protein was expressed using a baculovirus system and purified by affinity chromatography by Amgen Inc. Concentrations of KIF18A protein, microtubules (MT), and ATP in the reaction were optimized for standardized homogenous enzyme assay using ADP-Glo™ Kinase/ATPase Assay Kit (Promega Inc). The assay measures ADP formed from the ATPase reaction. Prepare reaction buffer [(15 mM Tris, pH 7.5 (Teknova Inc), 10 mM MgCl2 (IT Baker Inc), 0.01% Pluronic F-68 (Life Technologies Inc), 1 μM Taxol (Cytoskeleton Inc), and 30 μg/mL pig microtubules (Cytoskeleton Inc)]. Add compound and KIF18A protein (30 nM) to prepared reaction buffer and incubated for 15 minutes at room temperature, next add ATP (at Kin, 75 μM) to the reaction mixture and incubated for an additional 15 minutes at room temperature. Mix 5 μl of ADP-Glo™ Reagent and 2.5 μl of the reaction mixture and incubate for 40 minutes at room temperature. Add 10 μl ADP-Glo™ Detection Reagent and incubate for 40 minutes at room temperature. Read luminescence using EnVision microplate reader with ultra-luminescence module (Perkin Elmer Inc). Concentration-response curve-fitting and IC50 determination was performed using Genedata Screener Software (Standard 15.0.1, Genedata Inc) with a four-parameter logistic regression fit model.
Table A provides data for compounds exemplified in the present application and priority document thereof, as representative compounds of the present invention, as follows: chemical name (as named by either ACD software or ChemDraw (Professional 15.0)) and biological data (IC50 in μM). Ex. # refers to Example No.

T1 sequence (Q8NI77 1-467): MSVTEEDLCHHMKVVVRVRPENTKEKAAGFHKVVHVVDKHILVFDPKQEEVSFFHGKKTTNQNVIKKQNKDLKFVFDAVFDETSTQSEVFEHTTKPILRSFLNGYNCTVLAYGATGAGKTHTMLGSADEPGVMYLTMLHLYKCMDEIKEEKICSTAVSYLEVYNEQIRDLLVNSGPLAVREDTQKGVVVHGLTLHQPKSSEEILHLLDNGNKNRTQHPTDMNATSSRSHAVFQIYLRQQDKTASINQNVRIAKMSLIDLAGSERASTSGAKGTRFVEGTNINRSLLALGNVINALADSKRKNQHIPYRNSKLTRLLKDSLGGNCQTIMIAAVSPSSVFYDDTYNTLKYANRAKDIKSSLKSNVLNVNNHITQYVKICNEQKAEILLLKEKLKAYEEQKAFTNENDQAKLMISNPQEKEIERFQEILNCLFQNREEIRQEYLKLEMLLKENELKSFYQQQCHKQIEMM
T1 sequence (P02550 whole entry partner): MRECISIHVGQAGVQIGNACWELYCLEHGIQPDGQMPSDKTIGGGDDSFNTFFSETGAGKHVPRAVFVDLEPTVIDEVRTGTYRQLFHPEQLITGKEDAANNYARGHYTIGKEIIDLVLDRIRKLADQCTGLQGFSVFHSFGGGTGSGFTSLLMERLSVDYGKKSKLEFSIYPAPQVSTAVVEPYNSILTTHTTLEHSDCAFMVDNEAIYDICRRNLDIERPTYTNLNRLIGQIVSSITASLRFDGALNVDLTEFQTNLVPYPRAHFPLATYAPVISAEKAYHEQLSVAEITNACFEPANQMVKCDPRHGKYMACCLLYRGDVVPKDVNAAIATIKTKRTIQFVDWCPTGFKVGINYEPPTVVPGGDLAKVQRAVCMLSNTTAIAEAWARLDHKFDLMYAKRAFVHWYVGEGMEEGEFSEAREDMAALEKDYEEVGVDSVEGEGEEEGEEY
T1 sequence (P02554 whole entry partner): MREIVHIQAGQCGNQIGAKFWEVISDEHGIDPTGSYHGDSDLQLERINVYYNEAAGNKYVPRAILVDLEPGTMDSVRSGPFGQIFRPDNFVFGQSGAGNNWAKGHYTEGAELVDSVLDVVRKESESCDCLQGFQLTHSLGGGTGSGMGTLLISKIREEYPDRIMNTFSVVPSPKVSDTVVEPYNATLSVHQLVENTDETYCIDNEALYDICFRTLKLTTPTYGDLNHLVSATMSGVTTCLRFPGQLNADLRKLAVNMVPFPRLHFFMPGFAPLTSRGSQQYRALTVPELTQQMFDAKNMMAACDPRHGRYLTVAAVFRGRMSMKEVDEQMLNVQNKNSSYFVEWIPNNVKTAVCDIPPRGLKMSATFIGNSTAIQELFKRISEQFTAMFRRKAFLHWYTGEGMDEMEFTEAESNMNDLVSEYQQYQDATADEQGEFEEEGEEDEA

Row | Compound | IC50
1 | CC(C)(CO)Nc1ccc(C(=O)Nc2cccc(N3CCC(O)C3)n2)c(N2CCC3(CC2)CC3)n1 (stereo not shown) [Example 131, 6-((1-hydroxy-2-methylpropan-2-yl)amino)-N-(6-(3-hydroxypyrrolidin-1-yl)pyridin-2-yl)-2-(6-azaspiro[2.5]octan-6-yl)nicotinamide] | 0.294 µM
2 | C[C@H]1CN(c2cccc(NC(=O)c3ccc(NC(C)(C)CO)nc3N3CCC4(CC3)CC4)n2)CCO1 [Example 132, 2-(6-azaspiro[2.5]oct-6-yl)-6-((2-hydroxy-1,1-dimethylethyl)amino)-N-(6-((2S)-2-methyl-4-morpholinyl)-2-pyridinyl)-3-pyridinecarboxamide] | 0.0821 µM
3 | CN1CCN(c2cccc(NC(=O)c3ccc(NC(C)(C)CO)nc3N3CCC4(CC3)CC4)n2)CC1 [Example 133, 2-(6-azaspiro[2.5]oct-6-yl)-6-((2-hydroxy-1,1-dimethylethyl)amino)-N-(6-(4-methyl-1-piperazinyl)-2-pyridinyl)-3-pyridinecarboxamide] | 0.604 µM
4 | CC(C)(CO)Nc1ccc(C(=O)Nc2cccc(N3CCCC3=O)n2)c(N2CCC3(CC2)CC3)n1 [Example 134, 2-(6-azaspiro[2.5]oct-6-yl)-6-((2-hydroxy-1,1-dimethylethyl)amino)-N-(6-(2-oxo-1-pyrrolidinyl)-2-pyridinyl)-3-pyridinecarboxamide] | 0.204 µM
5 | CC1(C)CC(=O)N(c2cccc(NC(=O)c3ccc(NC(C)(C)CO)nc3N3CCC4(CC3)CC4)n2)C1 [Example 135, 2-(6-azaspiro[2.5]oct-6-yl)-N-(6-(4,4-dimethyl-2-oxo-1-pyrrolidinyl)-2-pyridinyl)-6-((2-hydroxy-1,1-dimethylethyl)amino)-3-pyridinecarboxamide] | 0.11 µM
6 | CC(C)(CO)Nc1ccc(C(=O)Nc2cccc(N3C[C@H]4C[C@H]4C3)n2)c(N2CCC3(CC2)CC3)n1 [Example 136, N-(6-((1R,5S)-3-azabicyclo[3.1.0]hex-3-yl)-2-pyridinyl)-2-(6-azaspiro[2.5]oct-6-yl)-6-((2-hydroxy-1,1-dimethylethyl)amino)-3-pyridinecarboxamide] | 0.0719 µM
7 | C[C@@H]1CN(c2cccc(NC(=O)c3ccc(NC(C)(C)CO)nc3N3CCC4(CC3)CC4)n2)CCO1 [Example 137, 2-(6-azaspiro[2.5]oct-6-yl)-6-((2-hydroxy-1,1-dimethylethyl)amino)-N-(6-((2R)-2-methyl-4-morpholinyl)-2-pyridinyl)-3-pyridinecarboxamide] | 0.0669 µM
8 | CC(C)(CO)Nc1ccc(C(=O)Nc2cccc(C3=CCOCC3)n2)c(N2CCC3(CC2)CC3)n1 [Example 138, 2-(6-azaspiro[2.5]oct-6-yl)-N-(6-(3,6-dihydro-2H-pyran-4-yl)-2-pyridinyl)-6-((1-hydroxy-2-methyl-2-propanyl)amino)-3-pyridinecarboxamide] | 0.0829 µM
9 | C[C@H]1CCN(c2cccc(NC(=O)c3ccc(NC(C)(C)CO)nc3N3CCC4(CC3)CC4)n2)C1 [Example 139, 2-(6-azaspiro[2.5]oct-6-yl)-6-((1-hydroxy-2-methyl-2-propanyl)amino)-N-(6-((3S)-3-methyl-1-pyrrolidinyl)-2-pyridinyl)-3-pyridinecarboxamide] | 0.0893 µM
10 | CC(O)(c1ccc(C(=O)Nc2cccc(N3CCOCC3)n2)c(N2CCC3(CC2)CC3)n1)C(F)(F)F (stereo not shown) [Example 140, N-(6-morpholinopyridin-2-yl)-2-(6-azaspiro[2.5]octan-6-yl)-6-(1,1,1-trifluoro-2-hydroxypropan-2-yl)nicotinamide] | 0.0712 µM
11 | C[C@](O)(c1ccc(C(=O)Nc2cccc(N3CCOCC3)n2)c(N2CCC3(CC2)CC3)n1)C(F)(F)F [Example 142, 2-(6-azaspiro[2.5]oct-6-yl)-N-(6-(4-morpholinyl)-2-pyridinyl)-6-((2S)-1,1,1-trifluoro-2-hydroxy-2-propanyl)-3-pyridinecarboxamide] | 0.0575 µM
12 | CC(C)(CO)Nc1ccc(C(=O)Nc2cccc(N3CC(F)C3)n2)c(N2CCC3(CC2)CC3)n1 [Example 144, 2-(6-azaspiro[2.5]oct-6-yl)-N-(6-(3-fluoro-1-azetidinyl)-2-pyridinyl)-6-((1-hydroxy-2-methyl-2-propanyl)amino)-3-pyridinecarboxamide] | 0.0765 µM
13 | COC1CN(c2cccc(NC(=O)c3ccc(NC(C)(C)CO)nc3N3CCC4(CC3)CC4)n2)C1 [Example 145, 2-(6-azaspiro[2.5]oct-6-yl)-6-((1-hydroxy-2-methyl-2-propanyl)amino)-N-(6-(3-methoxy-1-azetidinyl)-2-pyridinyl)-3-pyridinecarboxamide] | 0.168 µM
14 | CC(C)(CO)Nc1ccc(C(=O)Nc2cccc(C3CCOCC3)n2)c(N2CCC3(CC2)CC3)n1 [Example 146, 2-(6-azaspiro[2.5]oct-6-yl)-6-((1-hydroxy-2-methyl-2-propanyl)amino)-N-(6-(tetrahydro-2H-pyran-4-yl)-2-pyridinyl)-3-pyridinecarboxamide] | 0.247 µM
15 | C[C@@H]1CN(c2cccc(NC(=O)c3ccc(NC(C)(CO)CO)nc3N3CCC4(CC3)CC4)n2)CCO1 [Example 147, (R)-6-((1,3-dihydroxy-2-methylpropan-2-yl)amino)-N-(6-(2-methylmorpholino)pyridin-2-yl)-2-(6-azaspiro[2.5]octan-6-yl)nicotinamide] | 0.0534 µM
16 | CC(CO)(CO)Nc1ccc(C(=O)Nc2cccc(N3CCOCC3)n2)c(N2CCC3(CC2)CC3)n1 [Example 148, 2-(6-azaspiro[2.5]oct-6-yl)-6-((1,3-dihydroxy-2-methyl-2-propanyl)amino)-N-(6-(4-morpholinyl)-2-pyridinyl)-3-pyridinecarboxamide] | 0.0604 µM
17 | CC(CO)(CO)Nc1ccc(C(=O)Nc2cccc(N3CCC(F)(F)C3)n2)c(N2CCC3(CC2)CC3)n1 [Example 149, 2-(6-azaspiro[2.5]oct-6-yl)-N-(6-(3,3-difluoro-1-pyrrolidinyl)-2-pyridinyl)-6-((1,3-dihydroxy-2-methyl-2-propanyl)amino)-3-pyridinecarboxamide] | 0.0591 µM
18 | CC(C)(CO)Nc1ccc(C(=O)Nc2cc(Cl)cc(N3CCOCC3)n2)c(N2CCC3(CC2)CC3)n1 [Example 152, 2-(6-azaspiro[2.5]oct-6-yl)-N-(4-chloro-6-(4-morpholinyl)-2-pyridinyl)-6-((1-hydroxy-2-methyl-2-propanyl)amino)-3-pyridinecarboxamide] | 0.0743 µM
19 | Cc1cc(NC(=O)c2ccc(NC(C)(C)CO)nc2N2CCC3(CC2)CC3)nc(N2CCOCC2)c1 [Example 155, 2-(6-azaspiro[2.5]octan-6-yl)-6-((1-hydroxy-2-methyl-2-propanyl)amino)-N-(4-methyl-6-(4-morpholinyl)-2-pyridinyl)-3-pyridinecarboxamide] | 0.071 µM
20 | CC(C)(CO)Nc1ccc(C(=O)Nc2cc(C#N)cc(N3CCOCC3)n2)c(N2CCC3(CC2)CC3)n1 [Example 156, 2-(6-azaspiro[2.5]octan-6-yl)-N-(4-cyano-6-(4-morpholinyl)-2-pyridinyl)-6-((1-hydroxy-2-methyl-2-propanyl)amino)-3-pyridinecarboxamide] | 0.116 µM
21 | Cc1cc(NC(=O)c2ccc(NC(C)(C)CO)nc2N2CCC3(CC2)CC3)nc(S(=O)(=O)NC(C)(C)C)c1 [Example 157, 2-(6-azaspiro[2.5]octan-6-yl)-6-((1-hydroxy-2-methyl-2-propanyl)amino)-N-(4-methyl-6-((2-methyl-2-propanyl)sulfamoyl)-2-pyridinyl)-3-pyridinecarboxamide] | 0.206 µM
22 | COc1cc(NC(=O)c2ccc(NC(C)(C)CO)nc2N2CCC3(CC2)CC3)nc(N2CCOCC2)c1 [Example 158, 2-(6-azaspiro[2.5]octan-6-yl)-6-((1-hydroxy-2-methyl-2-propanyl)amino)-N-(4-methoxy-6-(4-morpholinyl)-2-pyridinyl)-3-pyridinecarboxamide] | 0.402 µM
23 | CC1(O)CN(c2ccc(C(=O)Nc3cccc(S(=O)(=O)NC(C)(C)C)n3)c(N3CCC4(CC3)CC4)n2)C1 [Example 159, 2-(6-azaspiro[2.5]octan-6-yl)-6-(3-hydroxy-3-methyl-1-azetidinyl)-N-(6-((2-methyl-2-propanyl)sulfamoyl)-2-pyridinyl)-3-pyridinecarboxamide] | 0.169 µM
24 | CC(C)(CO)Nc1ccc(C(=O)Nc2cc(C3CC3)cc(N3CCOCC3)n2)c(N2CCC3(CC2)CC3)n1 [Example 160, 2-(6-azaspiro[2.5]octan-6-yl)-N-(4-cyclopropyl-6-(4-morpholinyl)-2-pyridinyl)-6-((1-hydroxy-2-methyl-2-propanyl)amino)-3-pyridinecarboxamide] | 0.278 µM
25 | CC1(C)COC(=O)N1c1cccc(NC(=O)c2ccc(N3C(=O)OCC3(C)C)nc2N2CCC3(CC2)CC3)n1 [Example 161, 2-(6-azaspiro[2.5]octan-6-yl)-6-(4,4-dimethyl-2-oxo-1,3-oxazolidin-3-yl)-N-(6-(4,4-dimethyl-2-oxo-1,3-oxazolidin-3-yl)-2-pyridinyl)-3-pyridinecarboxamide] | 2.19 µM
